Assay results as given in ChEMBL document CHEMBL1201862, “PubChem BioAssay data set” (2004).
Active and inactive are the calls of the source.

Tests used:
[1] = tested on: HEK293; experiment: Fluorescence-based counterscreen for potentiators or agonists of NPY-Y2: cell-based high-throughput dose response assay to identify inhibitors of cyclic nucleotide gated ion channel (CNGC) activity. In this assay, the parental HEK293 cell line transfected with a cyclic-nucleotide gated ion channel (CNGC)-based cAMP sensor is used to measure inhibition of isoproterenol-induced CNGC activity by test compound.; assay type: functional; conditions: Homo sapiens
[2] = molecular target: T1, Neuropeptide Y receptor type 2 (Homo sapiens, UniProt P49146); experiment: Fluorescence-based cell-based high-throughput dose response assay for agonists of NPY-Y2. [Related pubchem assays: 1703 (Screening assay (CNGC inhibitors).), 1359 (Screening assay (NPY-Y2 potentiators or agonists).), 1304 (Screening assay (NPY-Y1 potentiators or agonists).), 1710 (Screening assay (NPY-Y2 agonists).), 1791 (Summary AID.)]; assay type: functional
T1 sequence (P49146 whole entry): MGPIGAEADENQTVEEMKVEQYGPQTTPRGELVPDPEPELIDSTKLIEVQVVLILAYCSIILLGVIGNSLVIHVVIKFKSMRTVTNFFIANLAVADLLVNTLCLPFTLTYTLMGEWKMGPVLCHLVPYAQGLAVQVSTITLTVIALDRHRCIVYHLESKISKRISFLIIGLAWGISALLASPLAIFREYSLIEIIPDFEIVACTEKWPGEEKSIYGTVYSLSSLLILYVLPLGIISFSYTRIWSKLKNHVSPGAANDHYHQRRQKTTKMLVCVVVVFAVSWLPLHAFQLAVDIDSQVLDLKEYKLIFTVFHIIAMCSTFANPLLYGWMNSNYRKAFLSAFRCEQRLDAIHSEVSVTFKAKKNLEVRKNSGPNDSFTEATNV

[3] = molecular target: T2, Neuropeptide Y receptor type 1 (Homo sapiens, UniProt P25929); experiment: Fluorescence-based counterscreen for agonists of NPY-Y2: cell-based high-throughput dose response assay for agonists of NPY-Y1.; assay type: functional
T2 sequence (P25929 whole entry): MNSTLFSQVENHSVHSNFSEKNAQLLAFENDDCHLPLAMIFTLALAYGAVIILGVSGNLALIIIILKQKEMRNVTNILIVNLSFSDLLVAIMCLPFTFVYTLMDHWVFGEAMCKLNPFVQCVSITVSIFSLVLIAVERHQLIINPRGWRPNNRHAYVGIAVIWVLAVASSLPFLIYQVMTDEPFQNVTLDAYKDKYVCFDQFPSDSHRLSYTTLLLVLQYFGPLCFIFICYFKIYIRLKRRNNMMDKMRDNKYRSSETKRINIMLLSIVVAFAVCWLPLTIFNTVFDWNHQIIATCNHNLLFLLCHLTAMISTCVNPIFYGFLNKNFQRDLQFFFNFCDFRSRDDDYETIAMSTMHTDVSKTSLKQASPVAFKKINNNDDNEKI

[4] = molecular target: Voltage-dependent T-type calcium channel subunit alpha-1H (Homo sapiens, UniProt O95180); assay type: functional;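 note: channel activity triggered by adding a high calcium stimulation buffer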
[5] = THP-1 cell cytotoxicity, dose response, cytotoxicity control for non-replicating M. tuberculosis project (AID 489025); assay type: functional
[6] = HepG2 cell cytotoxicity, dose response, cytotoxicity control for non-replicating M. tuberculosis project (AID 489018); assay type: functional; conditions: Mycobacterium tuberculosis
[7] = Vero E6 cell cytotoxicity, dose response, cytotoxicity control for non-replicating M. tuberculosis project, secondary assay (AID 492998); assay type: functional, VeroE6; conditions: Vero C1008
[8] = cells; assay type: functional
[9] = molecular target: G-protein coupled receptor 55 (Homo sapiens, UniProt Q9Y2T6); experiment: GPR55 agonists via beta-arrestin recruitment, primary screen, imaging, U2OS cells, beta-arrestin-GFP redistribution (AID 1961); assay type: functional
[10] = molecular target: T3, Heat shock factor protein 1 (Mus musculus, UniProt P38532); experiment: inhibition of MG132-induced HSE-luciferase signal, confirmation, cell-based, NIH3T3, luminescence, dose retest (AID 2382); assay type: functional;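 note: NIH3T3 fibroblasts with HSF1-driven luciferase reporter stressed by proteasome inhibitor MG132; luminescence from HSF1-driven luciferase expression after 8 hours of MG132 stress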
T3 sequence (P38532 whole entry): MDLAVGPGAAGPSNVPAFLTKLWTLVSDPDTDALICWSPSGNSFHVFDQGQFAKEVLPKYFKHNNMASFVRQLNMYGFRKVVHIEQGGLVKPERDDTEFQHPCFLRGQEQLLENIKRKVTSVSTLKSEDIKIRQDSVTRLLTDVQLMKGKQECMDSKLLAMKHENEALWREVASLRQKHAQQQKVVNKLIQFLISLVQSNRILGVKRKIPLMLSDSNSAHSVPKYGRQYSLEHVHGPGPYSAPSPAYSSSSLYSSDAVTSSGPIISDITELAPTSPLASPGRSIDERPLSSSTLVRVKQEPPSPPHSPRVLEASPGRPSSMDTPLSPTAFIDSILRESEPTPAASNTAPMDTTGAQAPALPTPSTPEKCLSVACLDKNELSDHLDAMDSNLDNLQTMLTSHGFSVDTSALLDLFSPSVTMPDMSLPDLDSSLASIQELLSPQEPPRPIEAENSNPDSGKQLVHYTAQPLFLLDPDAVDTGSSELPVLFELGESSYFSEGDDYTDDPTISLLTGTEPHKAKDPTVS

[11] = molecular target: T4, Bcl-2-related protein A1 (Mus musculus, UniProt Q07440); assay type: functional;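 note: confirmatory dose–response counterscreen on Bfl-1, used to check hits from a UBC13 polyubiquitin inhibitor campaign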
T4 sequence (Q07440 whole entry): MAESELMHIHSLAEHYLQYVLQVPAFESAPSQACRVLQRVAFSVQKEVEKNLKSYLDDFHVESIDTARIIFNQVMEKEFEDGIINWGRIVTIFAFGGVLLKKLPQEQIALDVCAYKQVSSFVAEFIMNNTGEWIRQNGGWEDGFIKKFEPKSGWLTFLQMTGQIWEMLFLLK

[12] = molecular target: T5, Ubiquitin-conjugating enzyme E2 N (Homo sapiens, UniProt P61088); assay type: functional
T5 sequence (P61088 whole entry): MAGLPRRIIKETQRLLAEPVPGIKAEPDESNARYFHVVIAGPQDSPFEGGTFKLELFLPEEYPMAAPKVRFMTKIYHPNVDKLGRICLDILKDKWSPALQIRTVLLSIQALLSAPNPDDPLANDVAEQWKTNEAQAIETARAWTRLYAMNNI

[13] = molecular target: T5, Ubiquitin-conjugating enzyme E2 N; assay type: functional; remark: listed apart in the source
[14] = inhibitors of firefly luciferase expression or activity, dose response, H4 neuroglioma cells, luminescence (AID 1990); assay type: functional, cell-based
[15] = Luminescence Cell-Based Dose Response HTS to Identify Inhibitors of 5'UTR Stem-Loop Driven Prion Protein mRNA Translation in H4 Neuroglioblastoma Cells. [Related pubchem assays: 1827 (Project Summary), 1813 (Primary HTS)]; assay type: functional
[16] = inhibitors of SNCA 5'UTR-driven reporter translation, confirmation, H4 neuroglioma cells, luminescence (AID 1988); assay type: functional, cell-based
[17] = cytotoxicity in HEK-293T cells, dose response, cytotoxicity control for BCR NF-kB inhibitor project, luminescence, B-cell screen hits (AID 489021); assay type: functional, cell-based;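 note: HEK-293T cells carrying an NF-kB luciferase reporter; cells exposed to compound for about 14 hours before viability readout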
[18] = tested on: HEK293; experiment: inhibitors of LMP1-driven NF-kB reporter, dose response, cell-based, HEK293, luciferase, cherry-pick (AID 588343); assay type: functional; conditions: Homo sapiens
[19] = molecular target: T6, Bcl-2-like protein 10 (Homo sapiens, UniProt Q9HD36); experiment: displacers of TR3 peptide from Bcl-B, primary screen, selectivity assay for Bfl-1 inhibitor project, biochemical, fluorescence polarization, FITC-TR3 peptide (AID 748);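 note: fluorescence polarization from a fluorescein-labelled TR3 peptide binding purified Bcl-B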
T6 sequence (Q9HD36 whole entry): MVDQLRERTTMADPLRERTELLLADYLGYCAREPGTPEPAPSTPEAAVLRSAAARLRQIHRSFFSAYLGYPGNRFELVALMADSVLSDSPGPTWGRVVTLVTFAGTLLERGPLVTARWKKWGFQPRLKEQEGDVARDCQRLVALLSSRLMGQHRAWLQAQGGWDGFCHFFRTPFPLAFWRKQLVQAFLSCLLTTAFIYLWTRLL

[20] = molecular target: NS3 (Hepatitis C virus, UniProt A3EZJ3); experiment: PubChem AID 2173; design: species or system Hepacivirus hominis
[21] = Luminescence Cell-Based Dose Retest to Confirm Inhibitors of Cancer Stem Cells. [Related pubchem assays (depositor defined):AID2717, AID2721]; assay type: functional; conditions: Homo sapiens
[22] = molecular target: Glyceraldehyde-3-phosphate dehydrogenase (Homo sapiens, UniProt P04406)
[23] = luciferase reporter signal reduction – luminescence, H4-C neuroglioblastoma cells, dose response (AID 2458); assay type: functional, cell-based;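 note: H4 neuroglioblastoma cells stably carrying a luciferase reporter gene fusion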
[24] = cells; assay type: functional, cell-based
[25] = inhibitors of SNCA 5'UTR-driven translation, confirmation, luminescence, H4 neuroglioblastoma cells, dose confirmation (AID 2454); assay type: functional, cell-based;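 note: H4 neuroglioblastoma cells carrying an alpha-synuclein 5'UTR luciferase reporter; potency for inhibition of the luciferase signal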
[26] = molecular target: T7, Microphthalmia-associated transcription factor (Homo sapiens, UniProt O75030); experiment: TRPM1 promoter luciferase signal decrease, dose response, MITF inhibitor project, cell-based, SK-MEL-5, cherry-picked, set 3 (AID 493073); assay type: functional
T7 sequence (O75030 whole entry): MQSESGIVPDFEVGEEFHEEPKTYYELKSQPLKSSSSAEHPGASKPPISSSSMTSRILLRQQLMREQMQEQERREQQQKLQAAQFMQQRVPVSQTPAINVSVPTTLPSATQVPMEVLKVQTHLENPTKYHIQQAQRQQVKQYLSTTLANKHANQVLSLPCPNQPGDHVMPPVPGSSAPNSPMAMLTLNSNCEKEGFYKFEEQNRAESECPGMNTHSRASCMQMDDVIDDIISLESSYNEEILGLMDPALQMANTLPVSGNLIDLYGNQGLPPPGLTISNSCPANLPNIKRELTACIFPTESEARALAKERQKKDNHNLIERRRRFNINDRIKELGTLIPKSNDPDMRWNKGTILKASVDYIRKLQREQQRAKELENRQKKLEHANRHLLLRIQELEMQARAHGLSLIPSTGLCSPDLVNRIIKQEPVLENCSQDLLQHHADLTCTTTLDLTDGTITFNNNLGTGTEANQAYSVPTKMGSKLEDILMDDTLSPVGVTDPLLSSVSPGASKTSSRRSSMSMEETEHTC

[27] = tested on: HEK293; experiment: NOD1 signaling inhibitors, primary screen, cell-based, luminescence, uHTS (AID 1578); assay type: functional; conditions: Homo sapiens
[28] = tested on: HEK293; experiment: cells; assay type: functional, cell-based; conditions: Homo sapiens
[29] = tested on: HEK293; experiment: cells; assay type: functional, cell-based; conditions: Homo sapiens; remark: listed apart in the source
[30] = molecular target: Nucleotide-binding oligomerization domain-containing protein 2 (Homo sapiens, UniProt Q9HC29); experiment: NOD2 signaling inhibitors, cell-based, luminescence, uHTS, HEK293 (AID 1566); assay type: functional
[31] = tested on: HEK293; experiment: NOD2 signaling inhibitors in MDP-stimulated cells, cell-based, uHTS, luminescence (AID 2001); assay type: functional; conditions: Homo sapiens
[32] = tested on: HEK293; experiment: cells; assay type: functional, cell-based; conditions: Homo sapiens; remark: listed apart in the source

Sequence of NS3 (A3EZJ3 whole entry): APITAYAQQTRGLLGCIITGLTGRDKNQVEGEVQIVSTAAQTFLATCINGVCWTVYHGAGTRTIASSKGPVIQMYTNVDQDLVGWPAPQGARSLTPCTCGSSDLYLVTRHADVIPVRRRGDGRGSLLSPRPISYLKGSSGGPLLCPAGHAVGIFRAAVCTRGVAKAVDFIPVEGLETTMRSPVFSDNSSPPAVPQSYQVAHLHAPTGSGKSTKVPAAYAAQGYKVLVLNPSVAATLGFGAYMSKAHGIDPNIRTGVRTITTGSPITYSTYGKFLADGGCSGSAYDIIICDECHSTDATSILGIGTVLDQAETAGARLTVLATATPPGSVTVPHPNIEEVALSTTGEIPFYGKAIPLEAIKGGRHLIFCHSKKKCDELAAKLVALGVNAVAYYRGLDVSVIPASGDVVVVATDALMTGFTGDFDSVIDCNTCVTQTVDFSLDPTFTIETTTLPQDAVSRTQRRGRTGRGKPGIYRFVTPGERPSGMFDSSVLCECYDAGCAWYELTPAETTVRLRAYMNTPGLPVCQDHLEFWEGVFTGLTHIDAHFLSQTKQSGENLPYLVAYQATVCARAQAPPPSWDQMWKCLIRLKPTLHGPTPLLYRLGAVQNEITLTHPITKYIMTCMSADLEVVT
Sequence of Nucleotide-binding oligomerization domain-containing protein 2 (Q9HC29 whole entry, the tested form may be a part): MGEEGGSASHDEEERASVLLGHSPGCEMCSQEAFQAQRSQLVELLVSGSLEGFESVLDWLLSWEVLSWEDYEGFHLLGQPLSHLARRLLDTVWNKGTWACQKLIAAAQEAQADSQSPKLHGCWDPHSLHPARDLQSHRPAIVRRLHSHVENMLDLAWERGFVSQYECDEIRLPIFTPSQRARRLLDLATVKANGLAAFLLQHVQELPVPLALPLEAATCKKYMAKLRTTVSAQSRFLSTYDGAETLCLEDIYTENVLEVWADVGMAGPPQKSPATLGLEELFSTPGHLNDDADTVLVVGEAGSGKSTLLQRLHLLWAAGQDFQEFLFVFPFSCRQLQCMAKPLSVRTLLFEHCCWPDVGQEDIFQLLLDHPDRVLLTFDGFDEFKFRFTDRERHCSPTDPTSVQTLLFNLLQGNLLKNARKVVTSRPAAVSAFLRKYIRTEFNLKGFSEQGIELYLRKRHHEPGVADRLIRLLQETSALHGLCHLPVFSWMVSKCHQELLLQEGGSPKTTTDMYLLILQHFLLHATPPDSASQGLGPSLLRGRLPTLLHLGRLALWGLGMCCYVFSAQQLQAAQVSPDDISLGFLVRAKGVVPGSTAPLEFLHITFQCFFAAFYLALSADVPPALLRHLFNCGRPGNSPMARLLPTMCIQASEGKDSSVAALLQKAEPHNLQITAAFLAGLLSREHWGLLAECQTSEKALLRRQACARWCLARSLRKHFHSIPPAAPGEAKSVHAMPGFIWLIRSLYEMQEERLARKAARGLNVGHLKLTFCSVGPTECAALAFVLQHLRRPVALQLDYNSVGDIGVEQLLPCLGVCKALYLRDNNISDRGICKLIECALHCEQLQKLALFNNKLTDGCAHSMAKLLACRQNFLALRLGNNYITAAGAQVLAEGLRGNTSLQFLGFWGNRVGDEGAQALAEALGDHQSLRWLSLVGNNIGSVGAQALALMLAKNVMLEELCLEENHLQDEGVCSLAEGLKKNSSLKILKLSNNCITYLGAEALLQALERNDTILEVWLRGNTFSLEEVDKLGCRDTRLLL
Sequence of Glyceraldehyde-3-phosphate dehydrogenase (P04406 whole entry, the tested form may be a part): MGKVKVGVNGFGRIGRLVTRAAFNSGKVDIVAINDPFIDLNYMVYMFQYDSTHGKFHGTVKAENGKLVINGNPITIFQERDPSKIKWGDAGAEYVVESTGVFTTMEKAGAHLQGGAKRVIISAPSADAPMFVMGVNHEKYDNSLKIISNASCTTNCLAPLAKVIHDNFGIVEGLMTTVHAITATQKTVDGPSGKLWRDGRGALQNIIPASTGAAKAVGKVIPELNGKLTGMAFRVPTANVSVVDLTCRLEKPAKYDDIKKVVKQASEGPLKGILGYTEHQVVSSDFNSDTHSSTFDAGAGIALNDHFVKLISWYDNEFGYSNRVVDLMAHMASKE
Sequence of Voltage-dependent T-type calcium channel subunit alpha-1H (O95180 whole entry): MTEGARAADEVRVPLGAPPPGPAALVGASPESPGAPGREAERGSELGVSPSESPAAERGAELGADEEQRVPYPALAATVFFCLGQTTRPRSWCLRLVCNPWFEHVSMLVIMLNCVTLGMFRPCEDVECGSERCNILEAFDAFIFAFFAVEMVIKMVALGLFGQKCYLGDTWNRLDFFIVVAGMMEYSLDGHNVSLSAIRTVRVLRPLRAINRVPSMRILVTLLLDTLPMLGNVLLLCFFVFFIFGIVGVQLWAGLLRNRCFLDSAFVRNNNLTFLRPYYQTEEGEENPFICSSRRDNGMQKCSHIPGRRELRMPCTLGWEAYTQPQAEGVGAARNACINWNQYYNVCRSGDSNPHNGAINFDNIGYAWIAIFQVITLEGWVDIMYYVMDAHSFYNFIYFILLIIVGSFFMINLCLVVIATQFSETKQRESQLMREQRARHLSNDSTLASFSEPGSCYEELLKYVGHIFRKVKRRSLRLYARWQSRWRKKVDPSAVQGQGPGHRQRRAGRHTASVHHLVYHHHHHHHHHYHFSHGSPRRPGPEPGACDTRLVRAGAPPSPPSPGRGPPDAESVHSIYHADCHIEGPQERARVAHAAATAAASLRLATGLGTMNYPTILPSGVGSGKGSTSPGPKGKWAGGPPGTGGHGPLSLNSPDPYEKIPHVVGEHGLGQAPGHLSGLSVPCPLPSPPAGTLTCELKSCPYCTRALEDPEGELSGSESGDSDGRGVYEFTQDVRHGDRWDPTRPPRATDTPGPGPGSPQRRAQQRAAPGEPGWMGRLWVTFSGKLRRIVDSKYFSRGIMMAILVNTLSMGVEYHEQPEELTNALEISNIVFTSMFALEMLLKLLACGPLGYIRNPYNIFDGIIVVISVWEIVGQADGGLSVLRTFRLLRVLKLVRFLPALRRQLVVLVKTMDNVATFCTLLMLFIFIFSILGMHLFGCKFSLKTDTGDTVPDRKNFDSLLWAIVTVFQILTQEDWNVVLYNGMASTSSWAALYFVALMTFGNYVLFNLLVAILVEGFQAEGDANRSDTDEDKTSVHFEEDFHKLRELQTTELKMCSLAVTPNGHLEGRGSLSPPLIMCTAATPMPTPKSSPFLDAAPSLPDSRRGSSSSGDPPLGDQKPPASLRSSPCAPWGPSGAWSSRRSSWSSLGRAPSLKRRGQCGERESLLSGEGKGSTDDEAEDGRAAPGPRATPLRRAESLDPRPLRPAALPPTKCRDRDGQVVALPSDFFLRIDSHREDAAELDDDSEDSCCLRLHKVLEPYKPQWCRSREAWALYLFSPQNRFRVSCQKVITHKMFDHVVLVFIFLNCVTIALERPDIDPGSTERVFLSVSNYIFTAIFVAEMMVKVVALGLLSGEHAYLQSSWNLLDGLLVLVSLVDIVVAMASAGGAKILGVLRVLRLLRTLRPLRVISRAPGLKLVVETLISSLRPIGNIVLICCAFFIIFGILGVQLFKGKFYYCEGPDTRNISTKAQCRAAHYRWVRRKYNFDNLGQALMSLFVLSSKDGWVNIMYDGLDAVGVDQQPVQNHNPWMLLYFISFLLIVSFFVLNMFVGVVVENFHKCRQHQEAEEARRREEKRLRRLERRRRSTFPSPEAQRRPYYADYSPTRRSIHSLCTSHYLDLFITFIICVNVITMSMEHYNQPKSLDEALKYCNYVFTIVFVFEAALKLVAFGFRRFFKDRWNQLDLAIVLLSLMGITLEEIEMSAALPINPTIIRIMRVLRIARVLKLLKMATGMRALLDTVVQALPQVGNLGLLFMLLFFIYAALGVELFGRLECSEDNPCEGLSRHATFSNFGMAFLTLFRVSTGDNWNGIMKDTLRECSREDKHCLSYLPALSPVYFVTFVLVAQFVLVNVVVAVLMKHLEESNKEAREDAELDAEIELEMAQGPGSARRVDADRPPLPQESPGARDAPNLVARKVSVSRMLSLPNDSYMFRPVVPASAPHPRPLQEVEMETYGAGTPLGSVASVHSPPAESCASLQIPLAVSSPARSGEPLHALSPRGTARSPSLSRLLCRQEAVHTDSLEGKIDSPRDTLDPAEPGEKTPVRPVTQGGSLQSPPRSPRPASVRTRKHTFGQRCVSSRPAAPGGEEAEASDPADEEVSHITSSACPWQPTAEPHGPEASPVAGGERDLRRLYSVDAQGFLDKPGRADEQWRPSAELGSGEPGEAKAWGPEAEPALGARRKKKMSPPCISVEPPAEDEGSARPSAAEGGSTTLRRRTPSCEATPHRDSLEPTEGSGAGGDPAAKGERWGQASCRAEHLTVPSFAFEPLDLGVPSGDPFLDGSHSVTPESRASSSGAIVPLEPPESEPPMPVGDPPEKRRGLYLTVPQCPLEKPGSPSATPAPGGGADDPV
Sequence of G-protein coupled receptor 55 (Q9Y2T6 whole entry): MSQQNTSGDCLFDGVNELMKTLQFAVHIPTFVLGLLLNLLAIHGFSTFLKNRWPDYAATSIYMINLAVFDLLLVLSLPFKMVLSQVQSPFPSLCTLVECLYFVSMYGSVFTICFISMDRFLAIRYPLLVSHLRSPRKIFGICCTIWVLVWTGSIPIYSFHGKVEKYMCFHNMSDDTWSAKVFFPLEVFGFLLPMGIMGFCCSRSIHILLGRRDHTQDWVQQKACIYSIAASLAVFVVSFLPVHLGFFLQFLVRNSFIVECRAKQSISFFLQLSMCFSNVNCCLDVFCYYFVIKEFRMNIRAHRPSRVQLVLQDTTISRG

CC(SC(=S)N1CCCC1)C(=O)O (stereo unspecified)
EC50 [1]: > 35.4 µM (not active) | EC50 [2]: > 35.4 µM (not active) | EC50 [3]: > 35.4 µM (not active)

O=C(Nc1ccccc1Cl)c1c(F)c(F)c(F)c(F)c1F
EC50 [1]: > 35.4 µM (not active) | EC50 [2]: > 35.4 µM (not active) | EC50 [3]: > 35.4 µM (not active)

CCC1CCCCN1S(=O)(=O)c1ccc(C(=O)Nc2nnc(-c3cccs3)o2)cc1 (stereo unspecified)
EC50 [4]: 1.44 µM (active) | CC50 [5]: 3.49 µM (active) | CC50 [6]: 9.09 µM (active) | CC50 [7]: 2.43 µM (active) | IC50 [8]: 6.49 µM (active)

Cc1ccc2c(Cl)cc(Cl)c(OCC(=O)Nc3ccc(C)c(S(=O)(=O)N(C)C)c3)c2n1
EC50 [9]: > 32 µM (inactive)

Oc1[nH]c2ccccc2c1N=NC(S)=NCC1CCCO1 (stereo unspecified)
EC50 [10]: > 195 µM (not active) | IC50 [11]: > 20 µM (inactive) | IC50 [12]: 1.73 µM (active) | IC50 [13]: 0.967 µM (active)

CCOC(=O)CNC(=O)CSc1nnc(NC(=O)c2ccc(C)cc2)s1
EC50 [14]: 9.66 µM (active) | EC50 [15]: 11 µM (active) | EC50 [16]: 7.31 µM (active) | IC50 [17]: > 80 µM (inactive) | AC50 [18]: 1.65 µM (active)

c1coc(C2Nc3cccc4cccc(c34)N2)c1
EC50 [14]: > 120 µM (not active) | IC50 [19]: 42.8 µM (active) | EC50 [15]: > 120 µM (not active) | EC50 [16]: > 120 µM (not active)

O=C(COC(=O)Cc1ccccc1)Nc1ncc(Cl)cc1Cl
IC50 [19]: 91.5 µM (inactive)

O=C1/C(=C/C=C/C=C/Nc2ccccc2)SC(=S)N1Cc1ccccc1
IC50 [20]: 17.3 µM (not active)

CCOC(=O)c1cc(-c2ccncc2)nc2c1c(C)nn2C
IC50 [11]: > 20 µM (inactive) | IC50 [12]: 11.3 µM (active) | IC50 [13]: 5.32 µM (active)

Cc1cc(C)cc(NC(=O)Nc2ccc(NC(=O)c3ccccc3O)cc2)c1
AC50 [21]: 0.167 µM (active) | IC50 [17]: > 80 µM (inactive)

CCC(C(=O)Nc1ccc(O)c(C(=O)O)c1)c1ccccc1 (stereo unspecified)
IC50 [22]: > 100 µM (not active)

Cn1c2ccc(Br)cc2c2nnc(SCC(=O)O)nc21
EC50 [14]: > 60 µM (not active) | EC50 [23]: > 12 µM (not active) | EC50 [24]: > 12 µM (not active) | EC50 [15]: < 0.1 µM (active) | EC50 [16]: 29.3 µM (active) | EC50 [25]: 9.55 µM (active)

CN1C/C(=C/c2cccnc2)C(=O)/C(=C/c2cccnc2)C1
CC50 [5]: 6.26 µM (active) | CC50 [6]: 8.54 µM (active) | CC50 [7]: > 20 µM (active) | AC50 [26]: 5.31 µM (active) | IC50 [8]: 16.8 µM (active)

COc1cccc(-c2noc(CCC(=O)NCCc3ccccc3)n2)c1
IC50 [17]: > 80 µM (inactive)

O=C(CCl)Nc1ccccc1Sc1ccc(Cl)cc1
EC50 [27]: 7.79 µM (active) | IC50 [28]: 4.56 µM (active) | IC50 [29]: > 20 µM (inactive) | EC50 [30]: 6.69 µM (active) | IC50 [31]: 9.91 µM (active) | IC50 [32]: > 20 µM (inactive)
